The nature of test [1]: Peroxynitrite assay (SIN-1, PTIO spin trap, ESR). Type of test: biochemical. The settings on record: mean of 6 independent assays. An excerpt: (§1) The superoxide anion has been measured by a chemiluminescent assay based on the hypoxanthine (HPX)/xanthine oxidase (XOD) reaction using the Lumimax Superoxide Anion Detection Kit (Stratagene, La Jolla, Calif., USA) and following the manufacturer's instructions. Hydroxyl radical scavenger activity has been measured by means of the Fenton reaction for the production of hydroxyl radicals and chemiluminescent dosage (using a Victor^3 chemiluminometer, Wallac, Finland) with luminol. Peroxynitrite ions have been determined by means of dosage with a spontaneous generator of peroxynitrites (3-morpholinosidnonimine hydrochloride; SIN-1) and a stable reagent for the nitroxyl ions (2-(4-carboxyphenyl)-4,4,5,5-tetramethylimidazoline-1-oxyl-3-oxide potassium salt PTIO spin trap) then dosed by means of electron spin resonance (ESR) using a. Nippon Denshi JES-FR30.
(§2) Extract 1 and Extract 2 listed in Table are derived from Syringa vulgaris cell cultures. […] The results are expressed as the concentration inhibiting 50% of activity (IC50). The values reported are the means of 6 independent assays.

The nature of test [2]: Hydroxyl radical scavenger activity (Fenton reaction, luminol chemiluminescence). The class given is biochemical. As to conditions: mean of 6 independent assays.
Text: as §1, with “Syringa vulgaris Extracts 1 and 2, prepared as described in examples 1 and 2, have been used to assess in vitro antioxidant action with specific oxygen radical generating systems such as the superoxide anion (O2^−), the hydroxyl radical (HO), the peroxynitrite radical (ONOO^−) and the inhibition of lipid peroxidation. The” for “The”, “JES-FR30. […].” for “JES-FR30.”
Extract 1 and Extract 2 listed in Table are derived from Syringa vulgaris cell cultures. In said extracts, verbascoside is present at 0.82% and 35% by weight respectively. […]

The nature of test [3]: Superoxide anion chemiluminescent assay (hypoxanthine/xanthine oxidase). Type of test: biochemical. As to conditions: mean of 6 independent assays.
Text: as §1, §2

The test system of test [4] is A549 cells. Briefly: Oxidative stress (ROS, DCF fluorescence) in A549 cell cultures. The settings on record: 1 mM, A549, galactose oxidative stress. Type of test: cell-based, human. As for the experimental part: 10×10^5 A549 cells (ATCC-CCL195) have been seeded into wells with 3 ml of DMEM/medium (HAM'S F12K) with 10% FCS and incubated at 37° C. in a 5% CO2, water vapour saturated atmosphere. After 24 hours the culture medium is replaced by medium supplemented with 5.55 mM galactose, which is left in contact with the cells for 20 hours. The medium is once again replaced with medium containing galactose in the presence or absence of the test compound. After 5 hours, quantitative measurement of the ROSs is performed by washing the cells with phosphate buffer and then incubating them with 30 μM DCF-DA in buffer solution. At the end of a 15 minute incubation, excess DCF-DA is removed from the cells by washing, prior to measuring the fluorescence emitted.
Antioxidant activity measurements are performed using a (Hitachi F3010) spectrophotometer with excitation at 488 nm and measuring emission at 525 nm, and values are expressed in pmoles, by extrapolation from the calibration curve constructed using known quantities of DCF, in relation to total cellular protein. Values are thus expressed in % ages with respect to the ROS, content of the cells not subjected to oxidative stress, to which are assigned a value of 100.
Syringa vulgaris Extracts 1 and 2 and ascorbic acid have been dissolved in phosphate buffer.

The subject of test [5] is tyrosinase. Kind of test: Tyrosinase inhibition, conversion of L-DOPA to DOPAquinone. The class given is biochemical, Mushroom. As to conditions: 100 μg/ml. The source says: (§3) The enzyme tyrosinase catalyses the reactions leading to melanin biosynthesis from tyrosine. […] Substances inhibiting tyrosinase activity produce clearing/bleaching effect on the skin, since they block melanin synthesis. The method used to determine the inhibition of tyrosinase activity in the oxidation reaction of L-tyrosine to L-DOPA is that described in Kim et al. […] Biol. Pharm. Bull. 28(2), 323-327, 2005). The method applied for determination of the inhibition of tyrosinase activity in the conversion of L-DOPA to DOPAquinone is that described in Masamoto et al. (Mushroom tyrosinase inhibitory activity of esculetin isolated from seeds of Euphorbia lathyris L. Biosci. Biotechnol. Biochem., 67(3), 631-634, 2003).

Test [6] concerns tyrosinase. Kind of test: Tyrosinase inhibition, oxidation of L-tyrosine to L-DOPA. The class given is biochemical. As to conditions: 250 μg/ml.
Text: as §3

Take `O=C1c2c(O)cccc2C([C@@H]2O[C@H](CO)[C@@H](O)[C@H](O)[C@H]2O)c2cc(CO)cc(O)c21` (some centres unmarked) [Aloin, reference compound]: the “Peroxynitrite radical (IC50)” value in test [1] was determined as 12.3 µg/mL. In addition, the “Hydroxyl radial (IC50)” value in test [2] was found to be 2.9 µg/mL. For the same compound, in test [3], the “Superoxide radical (IC50)” value amounted to 7.6 µg/mL.

`O=C1O[C@H]([C@@H](O)CO)C(O)=C1O` [Ascorbic acid, reference compound]: the “ROS level (%)” value in test [4] was 62.91 ± 3.82 %.

Take `O=c1cc(CO)occ1O` [Kojic acid, reference compound]: the “Test LDOPA-DOPAquinone inhibitory activity (%)” value in test [5] amounted to 35%. Moreover, the “Test L-tyrosine-DOPA inhibitory activity (%)” value in test [6] is 94.1%.

For the compound `Oc1cccc(O)c1` [Resorcinol, reference compound], the “Test LDOPA-DOPAquinone inhibitory activity (%)” value in test [5] is recorded as 0%. The “Test L-tyrosine-DOPA inhibitory activity (%)” value in test [6] came to 56.9%.

Source of the values: patent US10456434B2, “Extracts obtained from cell line cultures from plants belonging to the Oleaceae family (e.g. Syringa vulgaris), their preparation and use” (CRODA ITALIANA S. P. A., priority 2005, dated 2019).
